Calls of active or inactive are those of the source. The rule behind the calls is not given here.
Test system: HTR5A counterscreen cells, luminescence, activation
Assay: HTR5A agonist-like luminescent signal – cell-based, luminescence, dose response, set 2, counter-screen for OPRM1-OPRD1 heterodimer activator project, late-stage follow-up (AID 651765)

Structure (SMILES)	EC50
CCOC(=O)C1(CCc2ccccc2)CCN(Cc2ccncc2)CC1	> 50 µM (inactive)
CCOC(=O)C1CCN(Cc2ccc(NC(C)=O)cc2)CC1	> 50 µM (inactive)
C=Cc1ccc(C(=O)N2CCC(CCc3ccccc3)(C(=O)OCC)CC2)cc1	> 50 µM (inactive)
CCOC(=O)C1(CCOC)CCCN(Cc2ccc(NC(C)=O)cc2)C1 (stereo not drawn)	> 50 µM (inactive)
CCOC(=O)C1(CCc2ccccc2)CCN(Cc2ccc(O)cc2)CC1	> 50 µM (inactive)
C=Cc1ccc(C(=O)N2CCC(CCCc3ccccc3)(C(=O)OCC)CC2)cc1	> 50 µM (inactive)
CCOC(=O)C1CCN(CCC(=O)Nc2ccc(C)cc2)CC1	> 50 µM (inactive)
CCOC(=O)C1(Cc2ccccc2C)CCCN(Cc2ccc(NC(C)=O)cc2)C1 (stereo not drawn)	> 50 µM (inactive)
CCOC(=O)C1(CCc2ccccc2)CCN(Cc2ccc(OC)cc2)CC1	> 50 µM (inactive)
CCOC(=O)C1(Cc2ccccc2)CCCN(Cc2ccc(NC(C)=O)cc2)C1 (stereo not drawn)	> 50 µM (inactive)
CCOC(=O)C1(CC2CC2)CCN(Cc2ccc(NC(C)=O)cc2)CC1	> 50 µM (inactive)
CCOC(=O)C1(CC2CC2)CCN(C(=O)c2ccc(N3CCCCC3)cc2)CC1	> 50 µM (inactive)
CCOC(=O)C1(CCc2ccccc2)CCCN(Cc2ccc(N3CCNC3=O)cc2)C1 (stereo not drawn)	> 50 µM (inactive)
CCOC(=O)C1(CCOc2ccccc2)CCCN(Cc2ccc(NC(C)=O)cc2)C1 (stereo not drawn)	> 50 µM (inactive)
CCOC(=O)C1(Cc2cccc(OC)c2)CCCN(Cc2ccc(NC(C)=O)cc2)C1 (stereo not drawn)	> 50 µM (inactive)
CCOC(=O)C1(Cc2ccc(OC)cc2)CCN(C(=O)c2ccc(N(C)C)cc2)CC1	> 50 µM (inactive)
CCOC(=O)C1CCN(Cc2ccc(N(C)C)cc2)CC1	> 50 µM (inactive)
O=C(O)C1CCCCC1C(=O)Nc1ccc(CN2CCCCC2)cc1 (stereo not drawn)	> 50 µM (inactive)
CCOC(=O)C1(Cc2ccccc2Cl)CCN(Cc2ccc(NC(C)=O)cc2)CC1	> 50 µM (inactive)
CCOC(=O)C1CCN(C(=O)c2ccc(N(C)C)cc2)CC1	> 50 µM (inactive)
CCOC(=O)C1(CCOC)CCN(Cc2ccc(NC(C)=O)cc2)CC1	> 50 µM (inactive)
CCOC(=O)C1(CCc2ccccc2)CCN(C(=O)Nc2ccc(C)cc2C)CC1	> 50 µM (inactive)
CC(=O)Nc1ccc(CN2CCCC(CO)(CCc3ccccc3)C2)cc1 (stereo not drawn)	> 50 µM (inactive)
CCOC(=O)C1(CCOC)CCN(Cc2ccc(N(C)c3ccccc3)cc2)CC1	> 50 µM (inactive)
CCOC(=O)C1(CCc2ccccc2)CCN(Cc2c(O)cccc2OC)CC1	> 50 µM (inactive)
CCOC(=O)C1(CCc2ccccc2)CCN(Cc2ccc(C(=O)OC)cc2)CC1	> 50 µM (inactive)
CCOC(=O)C1(CCc2ccccc2)CCN(Cc2ccc(C#CC(C)(C)O)cc2)CC1	> 50 µM (inactive)
CCOC(=O)C1CCCCN1Cc1ccc(NC(C)=O)cc1 (stereo not drawn)	> 50 µM (inactive)

— PubChem BioAssay AID651765 (The Scripps Research Institute Molecular Screening Center, 2012)
